# Reference: US9156811B2 (priority 2008, dated 2015)
# Where two headings read alike, the source gives them in different places.
# Assays:
# [1] = test system: Trypanosome (T. brucei brucei); assay: In-vitro antitrypanosomal efficacy assay (cell growth, resazurin); type: cell-based
# Procedure: To column 12, 200 μl media was added to provide a no cells control. Plates were then incubated at 37° C. in an atmosphere of 5% CO2 for 69 hours, before the addition of 20 μl of 500 μM rezasurin solution, and a further incubation period of 4 hours. […] Concentration effect curves were fitted using non-linear regression using XLFit 4.2 and EC50 values determined.
# [2] = target: T. brucei N-myristoyl transferase (Trypanosoma brucei brucei (strain 927/4 GUTat10.1), UniProt Q388H8); assay: biochemical; type: biochemical
# [3] = value printed without enzyme tag in the NMT Enzyme column (taken as T. brucei NMT), read-out: IC50 (μM) NMT Enzyme
# [4] = value with no enzyme tag in the cell, taken as T. brucei NMT, read-out: IC50 (μM) NMT Enzyme
# [5] = T. brucei brucei, blood stream form, variant 221
# [6] = T. brucei NMT, value without parentheses, read-out: IC50 (μM) NMT Enzyme (T. brucei NMT)
# T. brucei N-myristoyl transferase, sequence (Q388H8 1-446): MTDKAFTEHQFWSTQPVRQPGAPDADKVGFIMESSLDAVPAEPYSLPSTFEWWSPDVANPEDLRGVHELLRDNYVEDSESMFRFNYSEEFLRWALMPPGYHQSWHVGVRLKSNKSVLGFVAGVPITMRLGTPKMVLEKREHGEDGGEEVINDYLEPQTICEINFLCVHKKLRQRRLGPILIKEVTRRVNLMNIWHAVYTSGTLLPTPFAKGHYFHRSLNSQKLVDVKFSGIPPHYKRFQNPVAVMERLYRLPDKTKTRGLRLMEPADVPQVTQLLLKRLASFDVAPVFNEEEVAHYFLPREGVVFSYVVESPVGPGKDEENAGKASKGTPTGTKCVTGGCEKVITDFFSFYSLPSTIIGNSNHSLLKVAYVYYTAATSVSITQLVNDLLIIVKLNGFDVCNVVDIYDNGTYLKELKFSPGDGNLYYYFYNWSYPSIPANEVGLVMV
SMILES,ED50 (μM) T. brucei ([1]; T. brucei cell growth),"IC50 [2, 3]","IC50 [2, 4]","ED50 (μM) T. brucei [1, 5]","IC50 [2, 6]"
Cc1nn(C)c(C)c1N[S+](=O)([O-])c1ccc(NCCCc2ccccc2)nc1 [DDD73327],>1 µM,2.8 µM,–,–,–
CCc1ccc(-c2cc(Cl)c([S+](=O)([O-])Nc3c(C)nn(C)c3C)c(Cl)c2)cc1 [DDD73267],>1 µM,44.5 µM,–,–,–
Cc1nn(C)c(C)c1N[S+](=O)([O-])c1ccc(CSc2ccc3ccccc3c2)cc1 [DDD73516],>1 µM,47.6 µM,–,–,–
COc1cc(C)c([S+](=O)([O-])Nc2cnc3ccccn23)c(C)c1C [DDD71277],>1 µM,95 µM,–,–,–
Cc1nn(C)c(C)c1N[S+](=O)([O-])c1ccc(NCCN2CCN(C(=O)OC(C)(C)C)CC2)nc1 [DDD86310],>1 µM,–,1 µM,–,–
Cc1nn(C)c(C)c1N[S+](=O)([O-])c1ccc(NC(C)c2ccccc2)nc1 (stereo not drawn) [DDD73322],5.4 µM,0.86 µM,–,–,–
Cc1nn(C)c(C)c1N[S+](=O)([O-])c1ccc(CNc2ccc(-c3ccccn3)cc2)cc1 [DDD73508],>1 µM,5.2 µM,–,–,–
Cc1nn(C)c(C)c1N(CCO)[S+](=O)([O-])c1c(Cl)cc(Br)cc1Cl [DDD85607],7.1 µM,1.1 µM,–,–,–
Cc1c(N[S+](=O)([O-])c2ccc(CCCOC3CCN(C)CC3)cc2)c(CC(C)C)nn1C [DDD100168],–,–,–,0.110 µM,0.009 µM
Cc1nn(C)c(C)c1N[S+](=O)([O-])c1ccc(CN2CCNC(=O)C2)cc1 [DDD73225],>1 µM,> 100 µM,–,–,–
Cc1nn(C)c(C)c1N[S+](=O)([O-])c1ccc(CNCc2ccccc2)cc1 [DDD73265],>1 µM,22.5 µM,–,–,–
Cc1c(N[S+](=O)([O-])c2ccc(CCCN3CCN(C)CC3)cc2)c(CC(C)C)nn1C [DDD90147],0.20 µM,–,0.034 µM,–,–
Cc1nn(C)c(C)c1N[S+](=O)([O-])c1ccc(-c2cccc(C=O)c2)cc1 [DDD86210],>1 µM,–,6 µM,–,–
COc1cc(C)c([S+](=O)([O-])Nc2c(C)nn(C(C)C)c2C)c(C)c1C [DDD73497],>1 µM,> 100 µM,–,–,–
Cc1nn(C)c(C)c1N[S+](=O)([O-])c1ccc(COCCCN(C)C)cc1 [DDD85647],>1 µM,–,66.1 µM,–,–
Cc1nn(C)c(C)c1N[S+](=O)([O-])c1ccc(NCCCN2CCN(Cc3ccccc3)CC2)nc1 [DD86299],>1 µM,–,1 µM,–,–
Cc1nn(C)c(C)c1N[S+](=O)([O-])c1ccc(Cn2cnc(-c3ccccc3)c2)cc1 [DDD73503],10.5 µM,2.5 µM,–,–,–
COc1cc(OC)cc(-c2cc(Cl)c([S+](=O)([O-])Nc3c(C)nn(C)c3C)c(Cl)c2)c1 [DDD73321],>1 µM,4.3 µM,–,–,–
CCNCc1cccc(-c2ccc([S+](=O)([O-])Nc3c(CC(C)C)nn(C)c3C)cc2)c1 [DDD100095],–,–,–,0.055 µM,0.005 µM
Cc1nn(C)c(C)c1N[S+](=O)([O-])c1ccc(COCc2ccc3ccccc3c2)cc1 [DDD73511],>1 µM,> 100 µM,–,–,–
Cc1nn(C)c(C)c1N[S+](=O)([O-])c1ccc(C(C)C)cc1 [DDD71241],>1 µM,1.5 µM,–,–,–
Cc1c(N[S+](=O)([O-])c2ccc(-c3cccc(CN(C)C)c3)c(Cl)c2)c(CC(C)C)nn1C [DDD99823],–,–,–,0.041 µM,0.006 µM
Cc1nn(C)c(C)c1N[S+](=O)([O-])c1ccc(Cl)c(C(F)(F)F)c1 [DDD71252],>1 µM,17.4 µM,–,–,–
Cc1nn(C)c(C)c1N[S+](=O)([O-])c1ccc(Nc2ccc(Oc3ccccc3)cc2)nc1 [DDD73483],>1 µM,> 100 µM,–,–,–
Cc1nn(C)c(C)c1N[S+](=O)([O-])c1c(Cl)cc(-c2cccc(C(N)=O)c2)cc1Cl [DDD73279],2.1 µM,1.1 µM,–,–,–
Cc1nn(C)c(C)c1N[S+](=O)([O-])c1ccc(-c2cc(C(F)(F)F)n(C)n2)s1 [DDD73242],>1 µM,32 µM,–,–,–
Cc1nn(C)c(C)c1N[S+](=O)([O-])c1ccc2c(c1)CCC(=O)N2 [DDD71247],>1 µM,3.4 µM,–,–,–
"Cc1nn(C)c(C)c1N(CCCO)S(=O)(=O)c1c(Cl)cc(Br)cc1Cl [DDD85593, 4-Bromo-2,6-dichloro-N-(3-hydroxy-propyl)-N-(1,3,5-trimethyl-1H-pyrazol-4-yl)-benzenesulfonamide]",3.5 µM,0.36 µM,–,–,–
Cc1nn(C)c(C)c1N[S+](=O)([O-])c1c(Cl)cc(-c2ccco2)cc1Cl [DDD73268],>1 µM,3.6 µM,–,–,–
CCCn1cc(N[S+](=O)([O-])c2c(C)cc(OC)c(C)c2C)nn1 [DDD73269],>1 µM,> 100 µM,–,–,–
